The source of these data is patent publication US9834542B2, “LXR modulators” (BRISTOL-MYERS SQUIBB COMPANY, priority 2013, dated 2017).

The structures appear in SMILES notation.

The assay addresses T1, LXRβ (Homo sapiens, UniProt P55055).
T1 construct: Co-transfection expression plasmids, comprising full-length LXRα (pCMX-h LXRα[…] or LXRβ (pCMX-hLXRβ)); expressed in transfected cells; host or cells: CV-1 African Green Monkey Kidney Cells
T1 sequence (P55055 1-460): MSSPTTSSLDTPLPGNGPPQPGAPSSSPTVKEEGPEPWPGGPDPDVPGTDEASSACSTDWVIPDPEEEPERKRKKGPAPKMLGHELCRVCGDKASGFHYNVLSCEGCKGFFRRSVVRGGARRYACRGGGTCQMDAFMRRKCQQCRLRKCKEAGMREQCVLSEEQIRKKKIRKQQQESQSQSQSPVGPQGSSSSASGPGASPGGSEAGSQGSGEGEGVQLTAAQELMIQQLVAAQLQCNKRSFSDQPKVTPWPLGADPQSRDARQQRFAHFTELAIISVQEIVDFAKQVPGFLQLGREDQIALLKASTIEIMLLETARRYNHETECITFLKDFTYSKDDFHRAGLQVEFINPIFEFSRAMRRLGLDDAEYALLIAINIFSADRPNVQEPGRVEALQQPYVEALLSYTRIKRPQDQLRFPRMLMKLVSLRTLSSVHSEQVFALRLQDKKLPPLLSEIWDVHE
T1 sequence (P19793 1-462 partner): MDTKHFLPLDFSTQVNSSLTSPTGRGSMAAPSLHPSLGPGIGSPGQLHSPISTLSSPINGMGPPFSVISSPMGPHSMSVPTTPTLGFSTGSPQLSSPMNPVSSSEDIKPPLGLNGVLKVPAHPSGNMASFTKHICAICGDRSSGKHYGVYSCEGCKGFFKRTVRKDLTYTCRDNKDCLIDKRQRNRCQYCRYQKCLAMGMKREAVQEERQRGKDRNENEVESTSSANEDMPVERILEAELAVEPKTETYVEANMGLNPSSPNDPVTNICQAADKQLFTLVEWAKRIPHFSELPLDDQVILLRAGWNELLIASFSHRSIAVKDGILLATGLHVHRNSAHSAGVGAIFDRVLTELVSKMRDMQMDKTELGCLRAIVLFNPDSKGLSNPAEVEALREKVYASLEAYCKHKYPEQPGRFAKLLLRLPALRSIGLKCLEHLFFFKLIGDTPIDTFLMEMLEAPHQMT
In words: Co-transfection assay (LXRE luciferase reporter), LXRβ. It counts as cell-based. As to conditions: for EC50: CV-1 cells transfected with pCMX-hLXRβ and LXREx1-Tk-Luciferase, 20 hours incubation; for Emax: LXRβ co-transfection, relative to high control 1-(2,4-difluorobenzyl)-2-oxo-6-(4-phenoxyphenyl)-4-(trifluoromethyl)-1,2-dihydropyridine-3-carbonitrile, read-out: % Efficacy. An outline of the steps:
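Luciferase output from an LXRE-Tk reporter measured after 20 h, 37 °C compound exposure of transiently transfected CV-1 cells expressing human LXRβ with endogenous RXR. EC50 fitted from 11-point half-log dose responses (mean of ≥2 runs); % efficacy versus maximal response of the reference agonist.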
On the technique in general: Reporter assays use an easily measured gene product as a stand-in for the process of interest.

Broadly, the EC50 is the concentration at which the effect is half-maximal. The low end stands for greater potency, the high end for weaker potency. In the case of `Cc1nc(-c2cc(-c3cccc(S(C)(=O)=O)c3)ccc2-n2cc(C(F)(F)F)nc2C)c(-c2ccc(C(F)(F)F)cc2)o1` [Example 513, 2-methyl-4-(4-(2-methyl-4-(trifluoromethyl)-1H-imidazol-1-yl)-3′-(methylsulfonyl)biphenyl-3-yl)-5-(4-(trifluoromethyl)phenyl)oxazole], the EC50 worked out at 137 nM and the Emax stood at 64%.

In the case of `CCC(F)(F)c1cn(-c2ccc(-c3cccc(S(C)(=O)=O)c3)cc2-c2nc(C)oc2-c2ccc(OC(F)(F)F)cc2)c(C)n1` [Example 517, 4-(4-(4-(1,1-difluoropropyl)-2-methyl-1H-imidazol-1-yl)-3′-(methylsulfonyl)-[1,1′-biphenyl]-3-yl)-2-methyl-5-(4-(trifluoromethoxy)phenyl)oxazole], the EC50 worked out at 146 nM and the Emax stood at 47%.

Take `CCC(F)(F)c1cn(-c2ccc(-c3cc(F)c(CO)c(S(C)(=O)=O)c3)cc2-c2nc(C)oc2-c2ccc(OC(F)(F)F)cc2)c(C)n1` [Example 518, (4′-(4-(1,1-difluoropropyl)-2-methyl-1H-imidazol-1-yl)-3-fluoro-3′-(2-methyl-5-(4-(trifluoromethoxy)phenyl)oxazol-4-yl)-5-(methylsulfonyl)-[1,1′-biphenyl]-4-yl)methanol]: the EC50 amounted to 107 nM and the Emax worked out at 49%.

`CCc1nc(-c2cc(-c3ccc(CO)c(S(C)(=O)=O)c3)ccc2-n2cc(C(F)(F)F)nc2C)c(-c2ccc(OC(F)(F)F)cc2)o1` [Example 519, (3′-(2-ethyl-5-(4-(trifluoromethoxy)phenyl)oxazol-4-yl)-4′-(2-methyl-4-(trifluoromethyl)-1H-imidazol-1-yl)-3-(methylsulfonyl)-[1,1′-biphenyl]-4-yl)methanol]: the EC50 was found to be 140 nM and the Emax was 100%.

On to `CCCc1nc(-c2cc(-c3cccc(S(C)(=O)=O)c3)ccc2-n2cc(C(F)(F)F)nc2C)c(-c2ccc(OC(F)(F)F)cc2)o1` [Example 520, 4-(4-(2-methyl-4-(trifluoromethyl)-1H-imidazol-1-yl)-3′-(methylsulfonyl)-[1,1′-biphenyl]-3-yl)-2-propyl-5-(4-(trifluoromethoxy)phenyl)oxazole], for which the response was half-maximal at 22 nM (EC50) and the Emax was found to be 86%.

For `Cc1nc(C(F)(F)F)cn1-c1ccc(-c2ccc(CO)c(S(C)(=O)=O)c2)cc1-c1nc(C(C)C)oc1-c1ccc(OC(F)(F)F)cc1` [Example 521, (3′-(2-isopropyl-5-(4-(trifluoromethoxy)phenyl)oxazol-4-yl)-4′-(2-methyl-4-(trifluoromethyl)-1H-imidazol-1-yl)-3-(methylsulfonyl)-[1,1′-biphenyl]-4-yl)methanol], the EC50 turned out to be 21 nM and the Emax worked out at 71%.

With `Cc1nc(-c2cc(-c3ccc(CO)c(S(C)(=O)=O)c3)ccc2-n2cc(C(F)(F)F)nc2C)c(-c2ccc(OC(F)(F)F)cc2)o1` [Example 522, (4′-(2-methyl-4-(trifluoromethyl)-1H-imidazol-1-yl)-3′-(2-methyl-5-(4-(trifluoromethoxy)phenyl)oxazol-4-yl)-3-(methylsulfonyl)-[1,1′-biphenyl]4-yl)methanol], the EC50 amounted to 42 nM and the Emax was determined as 86%.

With `Cc1nc(-c2cc(-c3ccc(CCO)c(S(C)(=O)=O)c3)ccc2-n2cc(C(F)(F)F)nc2C)c(-c2ccc(OC(F)(F)F)cc2)o1` [Example 523, 2-(4′-(2-methyl-4-(trifluoromethyl)-1H-imidazol-1-yl)-3′-(2-methyl-5-(4-(trifluoromethoxy)phenyl)oxazol-4-yl)-3-(methylsulfonyl)-[1,1′-biphenyl]-4-yl)ethanol], a half-maximal effect (EC50) was put at 67 nM and the Emax turned out to be 102%.

Turning to `Cc1nc(C(F)(F)F)cn1-c1ccc(-c2cccc(S(C)(=O)=O)c2)cc1-c1nc(CCO)oc1-c1ccc(OC(F)(F)F)cc1` [Example 524, 2-(4-(4-(2-methyl-4-(trifluoromethyl)-1H-imidazol-1-yl)-3′-(methylsulfonyl)-[1,1′-biphenyl]-3-yl)-5-(4-(trifluoromethoxy)phenyl)oxazol-2-yl)ethanol], a half-maximal effect (EC50) was put at 514 nM and the Emax was 66%.
